Experimental data from the NIST ThermoML archive (doi:10.1016/j.fluid.2006.12.015).
± gives the expanded uncertainty stated by the source.

Assays:
[1] = Liquid, Ebulliometric method (Recirculating still)
[2] = refractive index (Na D-line) (dimensionless); settings: 298.15 K; 101.33 kPa; Liquid; Standard Abbe refractometry

C1CCCCC1 [cyclohexane]
[1]
Settings | vapor or sublimation pressure [kPa]
318.47 K | 30.51 ± 0.37
326.06 K | 40.65 ± 0.37
331.63 K | 49.56 ± 0.38
337.52 K | 60.6 ± 0.39
342.21 K | 70.8 ± 0.41
343.15 K | 72.66 ± 0.52
346.25 K | 80.64 ± 0.43
350.08 K | 90.89 ± 0.44
353.15 K | 99.41 ± 0.58
353.32 K | 100.38 ± 0.45

Settings | refractive index
[2] | 1.4235 ± 0.0007

CCOC(C)(C)C [2-ethoxy-2-methylpropane]
[1]
Settings | vapor or sublimation pressure [kPa]
312.51 K | 30.76 ± 0.37
318.88 K | 39.54 ± 0.37
326.24 K | 52.05 ± 0.39
331.11 K | 62.01 ± 0.4
333.15 K | 66.52 ± 0.51
335.04 K | 71.06 ± 0.42
339.18 K | 81.64 ± 0.43
342.53 K | 91.06 ± 0.45
343.15 K | 92.96 ± 0.56
345.9 K | 101.41 ± 0.46

Settings | refractive index
[2] | 1.373 ± 0.0007

Cc1ccccc1 [toluene]
Settings | refractive index
[2] | 1.4939 ± 0.0007

CCSCC [3-thiapentane]
[1]
Settings | vapor or sublimation pressure [kPa]
333.15 K | 34.97 ± 0.41
343.15 K | 50.14 ± 0.45
353.15 K | 70.15 ± 0.49

Settings | refractive index
[2] | 1.44 ± 0.0007
